“Also recorded” adds a separate entry of the source. Where a name gives a salt, the structure may show the parent alone.
How the values were obtained:
CES1c = target: T1, CES1c (Homo sapiens, UniProt P23141); experiment: CES1c-catalyzed hydrolysis of RDV and control (substrate disappearance, LC-MS); format: in vitro ADME; details: 1 μM substrate, CES 1.5 mg/ml, pH 7.4, 37°C
T1 construct: purchased Corning Incorporated (Corning, NY); host or cells: baculovirus-infected insect cells (microsomal fraction, Supersomes)
T1 sequence (P23141 18-566 isoform P23141-3 limits assumed): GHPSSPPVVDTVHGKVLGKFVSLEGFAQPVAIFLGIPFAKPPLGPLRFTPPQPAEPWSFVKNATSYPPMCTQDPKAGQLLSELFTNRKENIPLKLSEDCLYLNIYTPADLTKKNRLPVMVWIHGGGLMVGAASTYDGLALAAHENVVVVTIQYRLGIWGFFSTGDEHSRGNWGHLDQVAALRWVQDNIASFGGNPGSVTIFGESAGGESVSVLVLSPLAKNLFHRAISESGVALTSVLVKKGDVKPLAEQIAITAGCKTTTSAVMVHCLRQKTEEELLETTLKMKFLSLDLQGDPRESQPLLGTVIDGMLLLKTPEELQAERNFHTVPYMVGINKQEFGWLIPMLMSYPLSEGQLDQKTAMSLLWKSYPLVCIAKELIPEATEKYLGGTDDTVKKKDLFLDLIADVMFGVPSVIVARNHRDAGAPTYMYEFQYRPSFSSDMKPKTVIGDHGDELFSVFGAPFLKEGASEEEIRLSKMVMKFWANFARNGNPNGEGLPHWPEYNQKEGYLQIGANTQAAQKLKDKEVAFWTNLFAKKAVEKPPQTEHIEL
Protocol: (§1) The catalytic activity of carboxylesterase 1b (CES1b), carboxylesterase 1c (CES1c), CES2, and CatA toward RDV hydrolysis was measured using protein-enriched subcellular fraction (CES isozymes) or recombinant proteins (CatA). The reaction rates were determined by monitoring the disappearance of RDV using a liquid chromatography-mass spectrometry (LC-MS) method.
(§2) RDV or positive-control substrates (oseltamivir for CES1 or procaine for CES2) were incubated with individual Supersome preparations (final CES concentration, 1.5 mg/ml) in 0.1 M potassium phosphate buffer (pH 7.4) at 37°C. Substrates were added to a final concentration of 1 μM to initiate the reaction. The final incubation volume was 250 μl. Aliquots were removed after incubation for 0, 10, 30, 60, and 120 min. The reactions were stopped by the addition of the quench solution containing the LC-MS internal standard (IS) (labetalol). Following protein precipitation and centrifugation, 150 μl of supernatant was dried down and reconstituted with 250 μl water. All samples were analyzed by an LC-MS, and the analyte/internal standard peak area ratio (PAR) values were used for quantification. Disappearance of RDV or positive-control compounds was monitored over the incubation time period. Three experiments were conducted with two replicates in each experiment, and data are reported as averages from the three experiments.
(§3) In all studies apart from those with CES1 and CatA with enzyme inhibitors, samples (10-μl aliquots) were injected with a Thermo Scientific autosampler. The LC instrumentation consisted of a Thermo Scientific Dionex UltiMate 3000 RS pump, and the LC column was a Waters Acquity UPLC BEH C18 (1.7 μm particle size, 2.1 by 50 mm). Mobile phases A and B were water 99.9% (vol/vol) containing 0.1% (vol/vol) formic acid, and acetonitrile 99.9% (vol/vol) containing 0.1% (vol/vol) formic acid, respectively, pumped at 0.2 ml/minute. Elution was achieved by a series of linear gradients over 2.33 min followed by reequilibration for 2.57 min. The MS instrument was a Thermo Q Exactive Hybrid Quadrupole-Orbitrap operating in positive or negative ionization mode as appropriate. This was calibrated on a weekly basis, and data were processed with GMSU 8.4.66 software by Gubbs Inc. (Alpharetta, GA). Mass tolerance of 5 ppm was used.

CES1b = target: T2, CES1b (Homo sapiens, UniProt P23141); experiment: CES1b-catalyzed hydrolysis of RDV and control (substrate disappearance, LC-MS); format: in vitro ADME; details: 1 μM substrate, CES 1.5 mg/ml, pH 7.4, 37°C
T2 construct: purchased Corning Incorporated (Corning, NY); host or cells: baculovirus-infected insect cells (microsomal fraction, Supersomes)
T2 sequence (P23141 18-567): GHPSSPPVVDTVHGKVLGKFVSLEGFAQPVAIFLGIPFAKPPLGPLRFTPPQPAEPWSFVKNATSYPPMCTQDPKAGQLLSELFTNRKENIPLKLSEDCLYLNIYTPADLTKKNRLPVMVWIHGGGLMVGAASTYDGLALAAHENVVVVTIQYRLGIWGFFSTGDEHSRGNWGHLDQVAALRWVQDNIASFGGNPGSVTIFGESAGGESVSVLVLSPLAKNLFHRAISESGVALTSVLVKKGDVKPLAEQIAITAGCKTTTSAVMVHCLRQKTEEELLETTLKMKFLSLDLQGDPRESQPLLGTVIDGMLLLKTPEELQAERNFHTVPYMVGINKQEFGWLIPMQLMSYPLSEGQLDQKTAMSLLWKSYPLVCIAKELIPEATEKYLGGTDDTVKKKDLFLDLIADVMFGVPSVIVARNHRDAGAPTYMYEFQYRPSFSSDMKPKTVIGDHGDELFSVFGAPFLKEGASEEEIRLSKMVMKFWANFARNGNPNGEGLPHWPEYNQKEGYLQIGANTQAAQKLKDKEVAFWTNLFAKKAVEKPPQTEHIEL
Protocol: as §1, §2, §3

CES2 = target: T3, CES2 (Homo sapiens, UniProt O00748); experiment: CES2-catalyzed hydrolysis of RDV and control (substrate disappearance, LC-MS); format: in vitro ADME; details: CES 1.5 mg/ml, pH 7.4, 37°C
T3 construct: purchased Corning Incorporated (Corning, NY); host or cells: baculovirus-infected insect cells (microsomal fraction, Supersomes)
T3 sequence (O00748 27-559): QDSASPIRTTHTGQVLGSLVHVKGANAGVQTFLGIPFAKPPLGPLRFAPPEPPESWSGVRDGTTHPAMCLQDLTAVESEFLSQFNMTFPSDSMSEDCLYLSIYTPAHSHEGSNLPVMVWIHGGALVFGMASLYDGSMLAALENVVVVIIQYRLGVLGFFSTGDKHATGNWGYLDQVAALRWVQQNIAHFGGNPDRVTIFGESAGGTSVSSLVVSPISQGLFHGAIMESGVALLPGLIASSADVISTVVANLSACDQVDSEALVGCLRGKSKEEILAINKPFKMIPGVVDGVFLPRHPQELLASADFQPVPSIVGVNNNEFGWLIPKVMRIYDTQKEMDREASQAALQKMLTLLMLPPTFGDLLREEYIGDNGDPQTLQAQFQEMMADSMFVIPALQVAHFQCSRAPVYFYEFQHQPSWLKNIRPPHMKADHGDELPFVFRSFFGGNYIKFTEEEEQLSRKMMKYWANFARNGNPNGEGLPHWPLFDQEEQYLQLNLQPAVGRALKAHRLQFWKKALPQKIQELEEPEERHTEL
Protocol: as §1, §2, §3

HINT1 = target: T4, HINT1 (Homo sapiens, UniProt P49773); experiment: HINT1-catalyzed hydrolysis of RDV MetX and positive control; format: in vitro ADME
T4 construct: purchased Abcam (Cambridge, MA)
T4 sequence (P49773 whole entry): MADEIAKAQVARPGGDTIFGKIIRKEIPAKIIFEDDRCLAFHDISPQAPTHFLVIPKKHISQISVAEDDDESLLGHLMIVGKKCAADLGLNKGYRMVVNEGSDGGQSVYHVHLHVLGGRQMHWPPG

[1] = Chemical hydrolysis of MetX under acidic conditions mimicking lysosomal lumen; format: physicochemical
Protocol: P-N bond cleavage of RDV MetX was evaluated under acidic pH, mimicking intracellular lysosomal conditions.
To test the chemical stability of RDV MetX under acidic conditions (found within the lysosomal lumen) or neutral conditions (e.g., found in the cytosol of cells), 1 μM compound was incubated in a 250-μl reaction mixture consisting of 100 mM sodium acetate (pH 4.5) or 100 mM HEPES (pH 7.5). […] For reactions carried out at pH 4.5, the pH of the reaction aliquots was raised to pH 9 to 10 by addition of 7.5 μl of 0.2 M NaOH prior to addition of the quenching solution. Following protein precipitation and centrifugation, 150 μl of supernatants were dried down and reconstituted with 250 μl water. All samples were analyzed by LC-MS, and PAR values were used for quantification. Disappearance of MetX was monitored over the incubation time period. Three experiments were conducted with two replicates for each experiment, and data are reported as averages from three experiments.

CatA = target: T5, CatA (Homo sapiens, UniProt P10619); experiment: CatA-catalyzed hydrolysis of RDV and control (substrate disappearance, LC-MS)
T5 sequence (P10619 29-326 limits assumed): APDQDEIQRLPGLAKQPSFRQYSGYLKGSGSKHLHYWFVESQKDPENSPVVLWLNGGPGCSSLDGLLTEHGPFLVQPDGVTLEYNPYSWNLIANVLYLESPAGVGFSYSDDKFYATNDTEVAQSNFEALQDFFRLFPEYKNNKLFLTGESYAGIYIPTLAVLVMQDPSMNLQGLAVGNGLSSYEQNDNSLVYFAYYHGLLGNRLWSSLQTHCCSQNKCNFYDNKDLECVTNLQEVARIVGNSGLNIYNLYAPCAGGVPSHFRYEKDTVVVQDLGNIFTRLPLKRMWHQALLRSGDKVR
T5 sequence (P10619 327-480 limits assumed): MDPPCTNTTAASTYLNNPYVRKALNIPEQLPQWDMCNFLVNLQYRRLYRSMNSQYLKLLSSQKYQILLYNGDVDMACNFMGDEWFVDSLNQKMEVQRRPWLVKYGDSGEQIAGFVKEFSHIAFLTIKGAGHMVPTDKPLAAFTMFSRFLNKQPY
Protocol: as §1
Following protein precipitation and centrifugation, 150 μl of supernatant was dried down and reconstituted with 250 μl water. […] Three experiments were conducted with two replicates in each experiment, and data are reported as averages from the three experiments.
as §3

[2] = 1 μM compound, 100 mM sodium acetate pH 4.5

CCOC(=O)C1=C[C@@H](OC(CC)CC)[C@H](NC(C)=O)[C@@H](N)C1 [Oseltamivir]
Activity for amidate ester cleavage, CES1c (CES1c): 1.5 ± 0.2 × 10^−2 nmol/min/mg | half-life at 1 μM (CES1c; human, CES1c Supersomes (protein-enriched subcellular fraction), read-out: t1/2, CES1c (converted)): 31 min | Activity for amidate ester cleavage, CES1b (CES1b): 2.3 ± 0.1 × 10^−2 nmol/min/mg | half-life at 1 μM (CES1b; human, CES1b Supersomes (protein-enriched subcellular fraction), read-out: t1/2, CES1b (converted)): 20 min

CCN(CC)CCOC(=O)c1ccc(N)cc1 [Procaine]
Activity for amidate ester cleavage, CES2 (CES2; 1 μM substrate): 4.4 ± 0.8 × 10^−3 nmol/min/mg | half-life at 1 μM (CES2; human, CES2 Supersomes (protein-enriched subcellular fraction), pH 7.4, 1 μM substrate, read-out: t1/2, CES2 (converted)): 110 min

C[C@H](N[P@@](=O)(O)OC[C@H]1O[C@@](C#N)(c2ccc3c(N)ncnn23)[C@H](O)[C@@H]1O)C(=O)O [RDV MetX]
HINT1 hydrolysis (HINT1; 1 μM substrate, 250 nM HINT1, pH 7.2, 37°C): 32 ± 12 nmol/min/mg | half-life at 1 μM (HINT1; human, recombinant HINT1, 1 μM substrate, 250 nM HINT1, pH 7.2, 37°C, read-out: t1/2, HINT1 hydrolysis (converted)): 5.5 min | HINT1 metabolism rate relative to GS-6620 MetX (HINT1; times faster than known substrate GS-6620 MetX): 6 times | Lysosomal hydrolysis at pH 4.5 [1, 2]: 0 ± 0 nmol/min | P-N bond cleavage under acidic pH ([1]; acidic pH mimicking intracellular lysosomal conditions): no RDV MetX hydrolysis product was detectable; also recorded: completely resistant to acid hydrolysis | half-life at 1 μM ([1]; buffer, pH 4.5): > 167 h

CC(C)OC(=O)[C@H](C)N[P@](=O)(CO[C@H](C)Cn1cnc2c(N)ncnc21)Oc1ccccc1 [TAF (GS-7340), tenofovir alafenamide fumarate]
Activity for amidate ester cleavage, CatA (CatA; 1 μM substrate, 5 nM CatA, pH 6.5, 37°C): 254 ± 154 nmol/min/mg | half-life at 1 μM (CatA; human, pH 6.5): 13 min

CC(Cn1cnc2c(N)ncnc21)OCP(=O)(O)NC(C)C(=O)O (stereo not shown) [TAF MetX]
Lysosomal hydrolysis at pH 4.5 [1, 2]: 1.2 ± 0.6 × 10^−3 nmol/min | t1/2, lysosomal hydrolysis at pH 4.5 [1, 2]: 16 ± 7 min

Reference: article PMC8370248, “Key Metabolic Enzymes Involved in Remdesivir Activation in Human Lung Cells” (Antimicrobial Agents and Chemotherapy, 2021)
